Where a name gives a salt, the structure may show the parent alone.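 These data come from cells grown in 96-well plates and exposed to compound for 48 hours at five concentrations. The concentration for 50% growth inhibition is given as GI50.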 Active and inactive are the calls of the source. Rule as the data show it: active = GI50 up to about 1.1 µM and inactive = higher.
Experiments:
Test in all cases: growth of human tumour cells (NCI), 48 h
OVCAR-3 = test system: OVCAR-3
MOLT-4 = test system: MOLT-4
T47D = test system: T47D
SF-268 = test system: SF-268
HOP-62 = test system: HOP-62
DU-145 = test system: DU-145
RXF 393 = test system: RXF 393
SR = test system: SR
LOX IMVI = test system: LOX IMVI
SF-539 = test system: SF-539
MDA-N = test system: MDA-N
A549 = test system: A549
K562 = test system: K562
OVCAR-5 = test system: OVCAR-5
SNB-19 = test system: SNB-19
TK-10 = test system: TK-10
UACC-257 = test system: UACC-257
HCC 2998 = test system: HCC 2998
OVCAR-4 = test system: OVCAR-4
SK-MEL-28 = test system: SK-MEL-28

SMILES | GI50 (OVCAR-3) | GI50 (MOLT-4) | GI50 (T47D) | GI50 (SF-268) | GI50 (HOP-62) | GI50 (DU-145) | GI50 (RXF 393) | GI50 (SR) | GI50 (LOX IMVI) | GI50 (SF-539) | GI50 (MDA-N) | GI50 (A549) | GI50 (K562) | GI50 (OVCAR-5) | GI50 (SNB-19) | GI50 (TK-10) | GI50 (UACC-257) | GI50 (HCC 2998) | GI50 (OVCAR-4) | GI50 (SK-MEL-28)
Cc1ccc2c(O)cc(-c3csc4ccccc34)nc2n1 | < 0.01 µM (active) | < 0.01 µM (active) | 21.2 µM (inactive) | 0.018 µM (active) | < 0.0138 µM (active) | 0.0163 µM (active) | < 0.01 µM (active) | < 0.01 µM (active) | < 0.0115 µM (active) | < 0.01 µM (active) | < 0.01 µM (active) | 0.0164 µM (active) | < 0.01 µM (active) | 0.0358 µM (active) | < 0.01 µM (active) | 0.484 µM (active) | – | – | – | –
CCn1c2nc(=O)n(CCCCCCCCSC(c3ccccc3)(c3ccccc3)c3ccccc3)c(=O)c-2nc2ccccc21 | 6.7 µM (inactive) | 2.9 µM (inactive) | 8.05 µM (inactive) | 4.08 µM (inactive) | 27.5 µM (inactive) | 90.6 µM (inactive) | 11.3 µM (inactive) | 2.61 µM (inactive) | 53.5 µM (inactive) | 64.3 µM (inactive) | 7.14 µM (inactive) | – | 5.55 µM (inactive) | > 100 µM (inactive) | – | 43.9 µM (inactive) | 3.73 µM (inactive) | 2.67 µM (inactive) | 9.53 µM (inactive) | 53.3 µM (inactive)
C/C(=N\NC(=S)N1CCC1)c1ccccn1 | 0.01 µM (active) | 0.01 µM (active) | 0.00137 µM (active) | 0.824 µM (active) | 0.0181 µM (active) | 0.891 µM (active) | 0.163 µM (active) | 0.01 µM (active) | < 0.0119 µM (active) | 0.114 µM (active) | 0.0682 µM (active) | 0.0246 µM (active) | 0.01 µM (active) | – | 0.261 µM (active) | 1.29 µM (inactive) | < 0.0229 µM (active) | 0.374 µM (active) | – | 0.425 µM (active)
CN(/N=C\c1ccc2ccccc2c1)C1=NCCCCN1 | 36.5 µM (inactive) | 17.6 µM (inactive) | 31.6 µM (inactive) | 34.4 µM (inactive) | 19.2 µM (inactive) | 54.2 µM (inactive) | 12.5 µM (inactive) | 21.2 µM (inactive) | 13.6 µM (inactive) | 21.7 µM (inactive) | 16.3 µM (inactive) | 18.8 µM (inactive) | 17.4 µM (inactive) | 36.5 µM (inactive) | – | 20.2 µM (inactive) | 16.4 µM (inactive) | 14.5 µM (inactive) | 30.2 µM (inactive) | 15.2 µM (inactive)
O=C(CC(C(=O)c1cccs1)c1ccsc1)c1ccccc1 (stereo not drawn) | > 100 µM (inactive) | 36.6 µM (inactive) | 24.7 µM (inactive) | > 100 µM (inactive) | > 100 µM (inactive) | > 100 µM (inactive) | 61 µM (inactive) | 66.1 µM (inactive) | > 100 µM (inactive) | > 100 µM (inactive) | 37.5 µM (inactive) | 21.5 µM (inactive) | – | > 100 µM (inactive) | – | > 100 µM (inactive) | > 100 µM (inactive) | > 100 µM (inactive) | 24 µM (inactive) | > 100 µM (inactive)
COC(=O)c1c(O)ccc2c1c1cc3ccccc3c(O)c1n2CCc1ccc(OC)c(OC)c1 | 68.2 µM (inactive) | 89.3 µM (inactive) | 42.9 µM (inactive) | 76.4 µM (inactive) | > 100 µM (inactive) | 96.6 µM (inactive) | > 100 µM (inactive) | 38.4 µM (inactive) | – | 98.9 µM (inactive) | 57.7 µM (inactive) | 43.2 µM (inactive) | 87.1 µM (inactive) | > 100 µM (inactive) | > 100 µM (inactive) | > 100 µM (inactive) | > 100 µM (inactive) | 27.4 µM (inactive) | 42.1 µM (inactive) | 17.4 µM (inactive)
Cc1ccc(/N=c2/oc3c(ccc4ccccc43)nc2Nc2ccc(C)cc2)cc1 | – | > 100 µM (inactive) | > 100 µM (inactive) | > 100 µM (inactive) | > 100 µM (inactive) | > 100 µM (inactive) | > 100 µM (inactive) | 69.8 µM (inactive) | > 100 µM (inactive) | > 100 µM (inactive) | > 100 µM (inactive) | > 100 µM (inactive) | > 100 µM (inactive) | > 100 µM (inactive) | > 100 µM (inactive) | > 100 µM (inactive) | > 100 µM (inactive) | > 100 µM (inactive) | > 100 µM (inactive) | > 100 µM (inactive)
COc1ccc2c(c1O)[C@@]13C=C(O)C(=O)C=C1[C@@H](C2)N(C)CC3 | 26.9 µM (inactive) | 36.1 µM (inactive) | 63.4 µM (inactive) | 28.6 µM (inactive) | 49.4 µM (inactive) | 56.9 µM (inactive) | 48.1 µM (inactive) | 42.7 µM (inactive) | 31.6 µM (inactive) | – | 47 µM (inactive) | > 100 µM (inactive) | > 100 µM (inactive) | > 100 µM (inactive) | 63.1 µM (inactive) | > 100 µM (inactive) | 43 µM (inactive) | > 100 µM (inactive) | 62.4 µM (inactive) | 87.7 µM (inactive)
O=c1oc2ccc(Cl)cc2cc1-c1cn2ccccc2n1 | 33.7 µM (inactive) | > 100 µM (inactive) | > 61.2 µM (inactive) | > 39.8 µM (inactive) | 3.67 µM (inactive) | > 61.9 µM (inactive) | 13.7 µM (inactive) | 32.9 µM (inactive) | 15 µM (inactive) | 8.09 µM (inactive) | > 100 µM (inactive) | 14.7 µM (inactive) | > 100 µM (inactive) | 57.5 µM (inactive) | – | 14.8 µM (inactive) | > 94.4 µM (inactive) | > 100 µM (inactive) | 13.7 µM (inactive) | 96.8 µM (inactive)
CN/C(=N\CCSCc1nc[nH]c1C)NC#N [CIMETIDINE] | > 100 µM (inactive) | > 100 µM (inactive) | > 100 µM (inactive) | > 100 µM (inactive) | > 100 µM (inactive) | > 100 µM (inactive) | > 100 µM (inactive) | > 100 µM (inactive) | > 100 µM (inactive) | > 100 µM (inactive) | > 100 µM (inactive) | > 100 µM (inactive) | > 100 µM (inactive) | > 100 µM (inactive) | > 100 µM (inactive) | – | > 100 µM (inactive) | > 100 µM (inactive) | 99.5 µM (inactive) | > 100 µM (inactive)
CN1C[C@H](C(=O)N[C@]2(C)O[C@@]3(O)[C@@H]4CCCN4C(=O)[C@H](Cc4ccccc4)N3C2=O)C=C2c3cccc4[nH]cc(c34)C[C@H]21 [ERGOTAMINE TARTRATE] | 18.3 µM (inactive) | 23.9 µM (inactive) | 33 µM (inactive) | 13.2 µM (inactive) | 23.9 µM (inactive) | 22.2 µM (inactive) | 18 µM (inactive) | 16.1 µM (inactive) | 15.5 µM (inactive) | 12.1 µM (inactive) | 18.5 µM (inactive) | 37.8 µM (inactive) | 25.4 µM (inactive) | 20.2 µM (inactive) | 35.1 µM (inactive) | 17.4 µM (inactive) | 13.9 µM (inactive) | – | 20.7 µM (inactive) | 17.1 µM (inactive)

— ChEMBL document CHEMBL1201862, “PubChem BioAssay data set” (2004)
